“And” between values parts separate entries of the source, which are not always exact repeats. Equal values may be shown once.
Assay: excess molar enthalpy (molar enthalpy of mixing); xn = mol fraction of the nth substance listed
Conditions: 298.15 K, 101 kPa, Liquid, Flow calorimetry

CCCCCC [hexane] + CCCCO
Conditions | excess molar enthalpy [kcal/mol]
x2 = 0.2065 | 0.128
x2 = 0.2516 | 0.129
x2 = 0.405 | 0.133
x2 = 0.5028 | 0.12
x2 = 0.6056 | 0.105
x2 = 0.7505 | 0.0658
x2 = 0.8055 | 0.0521

CCCCN(CCCC)CCCC [tributylamine] + CCCCCC
Conditions | excess molar enthalpy [kcal/mol]
x1 = 0.05 | -0.00112
x1 = 0.0995 | -0.00182
x1 = 0.1495 | -0.0022
x1 = 0.1997 | -0.0022
x1 = 0.2498 | -0.0021
x1 = 0.2992 | -0.00189
x1 = 0.3498 | -0.00167
x1 = 0.3991 | -0.00143
x1 = 0.449 | -0.00122
x1 = 0.4993 | -0.00103
x1 = 0.5488 | -0.000837
x1 = 0.599 | -0.000645
x1 = 0.6492 | -0.000502
x1 = 0.6989 | -0.000382
x1 = 0.7495 | -0.000311
x1 = 0.7991 | -0.000239
x1 = 0.8497 | -0.000191
x1 = 0.9 | -0.000143
x1 = 0.9501 | -9.56e-05

CCCCN(CCCC)CCCC [tributylamine] + CCCCO
Conditions | excess molar enthalpy [kcal/mol]
x2 = 0.0505 | 0.00913
x2 = 0.1006 | 0.0104
x2 = 0.1507 | 0.00648
x2 = 0.2009 | 0.00115
x2 = 0.2511 | -0.00574
x2 = 0.3013 | -0.0113
x2 = 0.3519 | -0.0181
x2 = 0.4018 | -0.024
x2 = 0.4514 | -0.0301
x2 = 0.5014 | -0.0352
x2 = 0.5513 | -0.0402
x2 = 0.6014 | -0.0439
x2 = 0.6512 | -0.0471
x2 = 0.7011 | -0.0489
x2 = 0.7517 | -0.0498
x2 = 0.8013 | -0.0491
x2 = 0.8514 | -0.0465
x2 = 0.9004 | -0.0403
x2 = 0.9503 | -0.0274
x2 = 0.9698 | -0.0182
x2 = 0.9853 | -0.0055

CCCCCCCCN(CCCCCCCC)CCCCCCCC [trioctylamine] + CCCCCC
Conditions | excess molar enthalpy
x1 = 0.0312 | -0.00115 kcal/mol and -0.00117 kcal/mol and -0.0012 kcal/mol
x1 = 0.0625 | -0.0021 kcal/mol and -0.00217 kcal/mol and -0.00208 kcal/mol
x1 = 0.0938 | -0.00249 kcal/mol
x1 = 0.125 | -0.00294 kcal/mol and -0.00277 kcal/mol
x1 = 0.1875 | -0.00301 kcal/mol and -0.00308 kcal/mol
x1 = 0.25 | -0.00263 kcal/mol and -0.00253 kcal/mol
x1 = 0.3125 | -0.00213 kcal/mol
x1 = 0.375 | -0.00179 kcal/mol
x1 = 0.4375 | -0.00155 kcal/mol
x1 = 0.4999 | -0.00127 kcal/mol
x1 = 0.5625 | -0.00098 kcal/mol
x1 = 0.6249 | -0.000669 kcal/mol
x1 = 0.625 | -0.000693 kcal/mol
x1 = 0.6873 | -0.000526 kcal/mol
x1 = 0.75 | -0.000406 kcal/mol
x1 = 0.8124 | -0.000215 kcal/mol and -0.000167 kcal/mol
x1 = 0.8749 | -9.56e-05 kcal/mol
x1 = 0.875 | -2.39e-05 kcal/mol
x1 = 0.9374 | -4.78e-05 kcal/mol

CCCCCCCCN(CCCCCCCC)CCCCCCCC [trioctylamine] + CCCCO
Conditions | excess molar enthalpy
x2 = 0.0623 | 0.0383 kcal/mol
x2 = 0.1246 | 0.053 kcal/mol
x2 = 0.1877 | 0.0618 kcal/mol
x2 = 0.2503 | 0.0668 kcal/mol
x2 = 0.3122 | 0.0689 kcal/mol
x2 = 0.3747 | 0.0696 kcal/mol
x2 = 0.4373 | 0.0682 kcal/mol
x2 = 0.5 | 0.0651 kcal/mol
x2 = 0.5625 | 0.0615 kcal/mol
x2 = 0.6251 | 0.0558 kcal/mol
x2 = 0.6876 | 0.0467 kcal/mol
x2 = 0.7501 | 0.0353 kcal/mol
x2 = 0.8125 | 0.0241 kcal/mol
x2 = 0.875 | 0.0152 kcal/mol and 0.015 kcal/mol
x2 = 0.9375 | 0.00612 kcal/mol

From the NIST ThermoML archive (doi:10.1016/j.jct.2005.12.006)
